Experimental data from ChEMBL document CHEMBL4184146, “Interrogating the Roles of Post-Translational Modifications of Non-Histone Proteins” (J Med Chem, 2018).
Each block holds one molecule with its values, some of them ahead of it.

Assays:
[1] = molecular target: T1, Protein farnesyltransferase (Homo sapiens, UniProt P49354+P49356); assay: Inhibition of FTase (unknown origin) using H-ras as substrate; assay type: protein-complex assay
[2] = molecular target: geranylgeranyltransferase type-I (Rattus norvegicus, UniProt P53610+Q04631); assay: Inhibition of rat brain GGTase1 assessed as decrease in transfer of [3H]H]geranylgeranyl from [3H]geranylgeranyl PPi to H-Ras-CVLL after 30 mins by liquid scintillation counting method
[3] = molecular target: T2, Glycylpeptide N-tetradecanoyltransferase (Neosartorya fumigata (strain ATCC MYA-4609 / Af293 / CBS 101355 / FGSCA1100) (Aspergillus fumigatus), UniProt Q9UVX3); assay: Inhibition of recombinant Aspergillus fumigatus NMT (Gln86 to Leu492 residues) expressed in Escherichia coli BL21(DE3) pLysS cells using [3H]-myristoyl coenzyme A/CAP5.5 as substrate after 20 mins by scintillation proximity assay
T2 sequence (Q9UVX3 whole entry): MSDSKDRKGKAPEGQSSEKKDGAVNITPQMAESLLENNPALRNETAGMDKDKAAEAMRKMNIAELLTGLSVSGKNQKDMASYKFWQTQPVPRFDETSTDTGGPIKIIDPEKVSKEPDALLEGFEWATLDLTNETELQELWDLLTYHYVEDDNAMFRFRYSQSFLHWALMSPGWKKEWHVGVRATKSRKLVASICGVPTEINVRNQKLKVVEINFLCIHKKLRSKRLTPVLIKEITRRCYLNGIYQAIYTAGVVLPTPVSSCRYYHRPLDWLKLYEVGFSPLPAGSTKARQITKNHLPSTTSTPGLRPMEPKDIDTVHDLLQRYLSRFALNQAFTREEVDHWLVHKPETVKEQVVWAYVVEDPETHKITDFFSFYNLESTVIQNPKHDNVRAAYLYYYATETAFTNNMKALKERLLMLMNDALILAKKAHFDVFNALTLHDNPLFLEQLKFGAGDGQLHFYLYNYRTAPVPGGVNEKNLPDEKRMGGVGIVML

[4] = molecular target: T1, Protein farnesyltransferase; assay: Inhibition of FTase (unknown origin); assay type: protein-complex assay
[5] = molecular target: T3, Geranylgeranyl transferase type I (Homo sapiens, UniProt P49354+P53609); assay: Inhibition of GGTase1 (unknown origin); assay type: protein-complex assay
[6] = molecular target: T1, Protein farnesyltransferase; assay: Inhibition of FTase isolated from human Burkitt's lymphoma cells assessed as decrease in transfer of [3H]farnesyl from [3H]farnesyl PPi to H-Ras-CVLS
[7] = molecular target: T3, Geranylgeranyl transferase type I; assay: Inhibition of GGTase1 isolated from human Burkitt's lymphoma cells assessed as decrease in transfer of [3H]H]geranylgeranyl from [3H]geranylgeranyl PPi to H-Ras-CVLL
[8] = molecular target: T3, Geranylgeranyl transferase type I; assay: Inhibition of GGTase1 (unknown origin) expressed in mouse NIH-3T3 cells transfected with k-Ras4B assessed as decrease in geranylgeranylation of k-Ras4B after 24 hrs by chemoluminescence assay; assay type: cell-based
[9] = molecular target: T1, Protein farnesyltransferase; assay: Inhibition of FTase (unknown origin) expressed in mouse NIH-3T3 cells transfected with human H-Ras assessed as decrease in farnesylation of H-Ras after 24 hrs by chemoluminescence assay; assay type: cell-based

- IC50 [1]: 0.8 nM
Compound: O=C(c1cn(Cc2cncn2Cc2ccc(Br)cc2)cc1-c1cccc2ccccc12)N1CCOCC1

Compound: NC(=O)N1CCC(CC(=O)N2CCC([C@H]3c4ncc(Br)cc4CCc4cc(Cl)cc(Br)c43)CC2)CC1 [LONAFARNIB]
- IC50 [2]: > 1000 nM

Compound: Cc1c(NS(=O)(=O)c2c(Cl)cc(-c3ccnc(N4CCNCC4)c3)cc2Cl)c(CC(C)C)nn1C [ZELENIRSTAT]
- IC50 [3]: 12 nM

Compound: COC(=O)[C@H](CCSC)NC(=O)CN1C[C@H](N(C)C(=O)[C@H](N)CS)N=C(c2ccccc2)c2ccccc21
- IC50 [4]: 41 nM
- IC50 [5]: > 1000 nM

- IC50 [6]: 200 nM
- IC50 [7]: 50 nM
Compound: CC(C)C[C@H](NC(=O)c1ccc(NC[C@@H](N)CS)cc1-c1cccc2ccccc12)C(=O)O

- IC50 [8]: 2000 nM
- IC50 [9]: > 30000 nM
Compound: COC(=O)[C@H](CC(C)C)NC(=O)c1ccc(NC[C@@H](N)CS)cc1-c1ccccc1
